Legend:
[1] = test system: pSTAT5 and pERK in patient-derived AML cells; assay: Cytokine-induced pSTAT5 and pERK in patient-derived AML cells; type: cell-based, human; settings: for pERK relative expression, FOLD / pSTAT5 relative expression, FOLD: fold over unstimulated; for pSTAT5 FOLD: relative expression vs Unstimulated
Experimental: All bone marrow or peripheral blood samples from patients with AML were collected after informed consent, in accordance with guidelines approved by the Human Research Ethics Committee of Alfred Health. Human AML cells were thawed, washed, and adjusted to 2 × 10^6 cells/mL in Iscove’s Modified Dulbecco’s Media (#12440053, Gibco, Grand Island NY, USA) supplemented with Glutamax 2 mM (Gibco) and 1% v/v Penicillin/Streptomycin (Gibco). […] For cytokine-mediated signalling assays, cells were incubated with vehicle or Dynole 34-2 for 1 h, and subsequently stimulated with either 25 ng/mL rhIL-3 (#200-03, Pepro Tech), 25 ng/mL rhGM-CSF (#300-03, Pepro Tech) or 125 ng/mL rhSCF (#300-07, Pepro Tech) at 37 °C for 20 min. Cells were washed twice using cold PBS 1× and flow cytometry analyses were done on single-cell suspensions using BD Pharmingen antibodies against human CD45 (#557748), IL-3R (CD123, #560087), GM-CSFR alpha chain (CD116, #554532) and BioLegend antibody against human KIT (A3C6E2). For assessing intracellular levels of pSTAT5 and phospho-ERK, flow cytometry analyses were performed in duplicate on patient-derived AML cells as described in the FACS analysis section. The MFI observed without stimulation was reported as 1.

[2] = Pharmacokinetic analysis of serum levels after a single intraperitoneal dose; type: in vivo; settings: ip, mouse, single intraperitoneal dose 30 mg/Kg
Experimental: All experiments were pre-approved by the University of Melbourne Animal Ethics Committee (Ethics ID: 0911153.1). […] Five different time points were chosen to measure drug level: 15, 30, 60 120 and 240 min after intraperitoneal injection of the recipients. At each time points, treated mice were killed by lethal injection of 0.01 mL/g of Lethobarb® (325 mg pentobarbitone sodium/mL). Following this, blood was collected via intra-cardiac puncture, blood was then allowed to clot at room temperature for 15 min, then centrifuged at 1500 × g for 6 min to separate out the cells and serum. The serum was collected, weighed, snap frozen in dry ice and stored at −80 °C.
Drug-free mouse serum was used as negative controls. Serum blanks, including calibration standard and quality control samples, were prepared by protein precipitation. Selectivity was evaluated by comparing chromatograms of six blank blood samples from six different sources to make sure there were no significant interfering peaks at retention time of analysis. The maximum serum concentration (Cmax) and the time to reach Cmax (Tmax) were directly obtained from the experimental data. The time needed for 50% reduction in the serum concentration (terminal half-life; T1/2) was calculated from the mean values (n = 5) using GraphPad Prism 8.

Question: Which “pERK relative expression, MFI” value ([1]; AML01-021) does the source give for `CCCCCCCCNC(=O)C(C#N)=Cc1cn(CCCN(C)C)c2ccccc12` [Dynole 34-2, 2-Cyano-N-octyl-3-(1-(3-dimethylaminopropyl)-1H-indol-3-yl)-acrylamide] here?
Answer: 1807 MFI

Question: What about the “pSTAT5 relative expression, MFI” value ([1]; AML01-021) of the same compound?
Answer: 4941 MFI

Question: And the “pStat5 (MFI)” value ([1]; AML01-021)?
Answer: 2538 MFI

Question: And the “pERK relative expression, FOLD” value ([1]; AML01-021)?
Answer: 1.07 FOLD

Question: And the “pSTAT5 relative expression, FOLD” value ([1]; AML01-021)?
Answer: 1.87 FOLD

Question: What about the “pSTAT5 FOLD” value ([1]; AML01-021) of the same compound?
Answer: 1.02

Question: What about the “pERK relative expression, MFI” value ([1]; AML01-050) of the same compound?
Answer: 10447 MFI

Question: What about the “pSTAT5 relative expression, MFI” value ([1]; AML01-050) of the same compound?
Answer: 19500 MFI

Question: And the “pStat5 (MFI)” value ([1]; AML01-050)?
Answer: 29884 MFI

Question: And the “pERK relative expression, FOLD” value ([1]; AML01-050)?
Answer: 1.28 FOLD

Question: And the “pSTAT5 relative expression, FOLD” value ([1]; AML01-050)?
Answer: 0.97 FOLD

Question: What about the “pSTAT5 FOLD” value ([1]; AML01-050) of the same compound?
Answer: 0.84

Question: What about the “pERK relative expression, MFI” value ([1]; AML01-072) of the same compound?
Answer: 2195 MFI

Question: What about the “pSTAT5 relative expression, MFI” value ([1]; AML01-072) of the same compound?
Answer: 18325 MFI

Question: And the “pStat5 (MFI)” value ([1]; AML01-072)?
Answer: 10160 MFI

Question: What about the “pERK relative expression, FOLD” value ([1]; AML01-072) of the same compound?
Answer: 1.01 FOLD

Question: And the “pSTAT5 relative expression, FOLD” value ([1]; AML01-072)?
Answer: 0.91 FOLD

Question: What about the “pSTAT5 FOLD” value ([1]; AML01-072) of the same compound?
Answer: 0.88

Question: And the “pERK relative expression, MFI” value ([1]; AML01-226)?
Answer: 1574 MFI

Question: And the “pSTAT5 relative expression, MFI” value ([1]; AML01-226)?
Answer: 673 MFI

Question: And the “pStat5 (MFI)” value ([1]; AML01-226)?
Answer: 511 MFI

Question: And the “pERK relative expression, FOLD” value ([1]; AML01-226)?
Answer: 1.05 FOLD

Question: And the “pSTAT5 relative expression, FOLD” value ([1]; AML01-226)?
Answer: 0.89 FOLD

Question: And the “pSTAT5 FOLD” value ([1]; AML01-226)?
Answer: 1.01

Question: And the “pERK relative expression, MFI” value ([1]; AML01-307)?
Answer: 2891 MFI

Question: And the “pSTAT5 relative expression, MFI” value ([1]; AML01-307)?
Answer: 12933 MFI

Question: What about the “pStat5 (MFI)” value ([1]; AML01-307) of the same compound?
Answer: 10786 MFI

Question: And the “pERK relative expression, FOLD” value ([1]; AML01-307)?
Answer: 1.06 FOLD

Question: And the “pSTAT5 relative expression, FOLD” value ([1]; AML01-307)?
Answer: 1.07 FOLD

Question: What about the “pSTAT5 FOLD” value ([1]; AML01-307) of the same compound?
Answer: 1.08

Question: And the “pERK relative expression, MFI” value ([1]; AML02-078)?
Answer: 5047 MFI

Question: What about the “pSTAT5 relative expression, MFI” value ([1]; AML02-078) of the same compound?
Answer: 31582 MFI

Question: And the “pStat5 (MFI)” value ([1]; AML02-078)?
Answer: 31914 MFI

Question: And the “pERK relative expression, FOLD” value ([1]; AML02-078)?
Answer: 0.79 FOLD

Question: And the “pSTAT5 relative expression, FOLD” value ([1]; AML02-078)?
Answer: 1.24 FOLD

Question: And the “pSTAT5 FOLD” value ([1]; AML02-078)?
Answer: 1.05

Question: What about the “pERK relative expression, MFI” value ([1]; AML02-123) of the same compound?
Answer: 4380 MFI

Question: And the “pSTAT5 relative expression, MFI” value ([1]; AML02-123)?
Answer: 22757 MFI

Question: What about the “pStat5 (MFI)” value ([1]; AML02-123) of the same compound?
Answer: 30741 MFI

Question: What about the “pERK relative expression, FOLD” value ([1]; AML02-123) of the same compound?
Answer: 1.16 FOLD

Question: What about the “pSTAT5 relative expression, FOLD” value ([1]; AML02-123) of the same compound?
Answer: 1.15 FOLD

Question: And the “pSTAT5 FOLD” value ([1]; AML02-123)?
Answer: 1.00

Question: And the “pERK relative expression, MFI” value ([1]; AML02-232)?
Answer: 1644 MFI

Question: And the “pSTAT5 relative expression, MFI” value ([1]; AML02-232)?
Answer: 1406 MFI

Question: And the “pStat5 (MFI)” value ([1]; AML02-232)?
Answer: 688 MFI

Question: What about the “pERK relative expression, FOLD” value ([1]; AML02-232) of the same compound?
Answer: 1.04 FOLD

Question: And the “pSTAT5 relative expression, FOLD” value ([1]; AML02-232)?
Answer: 1.59 FOLD

Question: What about the “pSTAT5 FOLD” value ([1]; AML02-232) of the same compound?
Answer: 0.73

Question: And the “pERK relative expression, MFI” value ([1]; AML03-330)?
Answer: 10652 MFI

Question: And the “pSTAT5 relative expression, MFI” value ([1]; AML03-330)?
Answer: 5650 MFI

Question: What about the “pStat5 (MFI)” value ([1]; AML03-330) of the same compound?
Answer: 6696 MFI

Question: And the “pERK relative expression, FOLD” value ([1]; AML03-330)?
Answer: 0.97 FOLD

Question: And the “pSTAT5 relative expression, FOLD” value ([1]; AML03-330)?
Answer: 1.04 FOLD

Question: What about the “pSTAT5 FOLD” value ([1]; AML03-330) of the same compound?
Answer: 1.02

Question: And the “pERK relative expression, MFI” value ([1]; AML03-331)?
Answer: 1814 MFI

Question: What about the “pSTAT5 relative expression, MFI” value ([1]; AML03-331) of the same compound?
Answer: 1899 MFI

Question: And the “pStat5 (MFI)” value ([1]; AML03-331)?
Answer: 2344 MFI

Question: And the “pERK relative expression, FOLD” value ([1]; AML03-331)?
Answer: 0.94 FOLD

Question: And the “pSTAT5 relative expression, FOLD” value ([1]; AML03-331)?
Answer: 1.03 FOLD

Question: And the “pSTAT5 FOLD” value ([1]; AML03-331)?
Answer: 1.02

Question: What about the “pERK relative expression, MFI” value ([1]; AML4) of the same compound?
Answer: 1091 MFI

Question: And the “pSTAT5 relative expression, MFI” value ([1]; AML4)?
Answer: 3442 MFI

Question: What about the “pStat5 (MFI)” value ([1]; AML4) of the same compound?
Answer: 3071 MFI

Question: What about the “pERK relative expression, FOLD” value ([1]; AML4) of the same compound?
Answer: 1.13 FOLD

Question: What about the “pSTAT5 relative expression, FOLD” value ([1]; AML4) of the same compound?
Answer: 0.95 FOLD

Question: And the “pSTAT5 FOLD” value ([1]; AML4)?
Answer: 0.85

Question: What about the “pERK relative expression, MFI” value ([1]; AML16) of the same compound?
Answer: 2510 MFI

Question: And the “pSTAT5 relative expression, MFI” value ([1]; AML16)?
Answer: 17405 MFI

Question: What about the “pStat5 (MFI)” value ([1]; AML16) of the same compound?
Answer: 13885 MFI

Question: What about the “pERK relative expression, FOLD” value ([1]; AML16) of the same compound?
Answer: 0.44 FOLD

Question: And the “pSTAT5 relative expression, FOLD” value ([1]; AML16)?
Answer: 0.88 FOLD

Question: And the “pSTAT5 FOLD” value ([1]; AML16)?
Answer: 0.70

Question: And the “pERK relative expression, MFI” value ([1]; AML17)?
Answer: 822 MFI

Question: And the “pSTAT5 relative expression, MFI” value ([1]; AML17)?
Answer: 3831 MFI

Question: And the “pStat5 (MFI)” value ([1]; AML17)?
Answer: 3091 MFI

Question: And the “pERK relative expression, FOLD” value ([1]; AML17)?
Answer: 0.99 FOLD

Question: And the “pSTAT5 relative expression, FOLD” value ([1]; AML17)?
Answer: 1.02 FOLD

Question: What about the “pSTAT5 FOLD” value ([1]; AML17) of the same compound?
Answer: 1.01

Question: And the “pERK relative expression, MFI” value ([1]; AML18)?
Answer: 985 MFI

Question: And the “pSTAT5 relative expression, MFI” value ([1]; AML18)?
Answer: 4716 MFI

Question: And the “pStat5 (MFI)” value ([1]; AML18)?
Answer: 4188 MFI

Question: What about the “pERK relative expression, FOLD” value ([1]; AML18) of the same compound?
Answer: 0.99 FOLD

Question: And the “pSTAT5 relative expression, FOLD” value ([1]; AML18)?
Answer: 0.86 FOLD

Question: And the “pSTAT5 FOLD” value ([1]; AML18)?
Answer: 1.02

Question: What about the “pERK relative expression, MFI” value ([1]; AML34) of the same compound?
Answer: 2315 MFI

Question: What about the “pStat5 (MFI)” value ([1]; AML34) of the same compound?
Answer: 10444 MFI

Question: What about the “pERK relative expression, FOLD” value ([1]; AML34) of the same compound?
Answer: 0.84 FOLD

Question: And the “pSTAT5 FOLD” value ([1]; AML34)?
Answer: 1.43

Question: What about the “pERK relative expression, MFI” value ([1]; AML54) of the same compound?
Answer: 2163 MFI

Question: What about the “pStat5 (MFI)” value ([1]; AML54) of the same compound?
Answer: 4818 MFI

Question: What about the “pERK relative expression, FOLD” value ([1]; AML54) of the same compound?
Answer: 0.94 FOLD

Question: And the “pSTAT5 FOLD” value ([1]; AML54)?
Answer: 0.89

Question: What about the “downstream signalling (pSTAT5) in human AML cells” value ([1]; result in words) of the same compound?
Answer: blocked downstream signalling

Question: What about the Cmax ([2]; read-out: average maximum concentration (Cmax) in serum) of the same compound?
Answer: > 4 µM

Question: And the half-life ([2]; read-out: estimated half-life in serum)?
Answer: 30 min
